Data set [1] concerns the target T1, human GHSR (Homo sapiens, UniProt Q92847).
T1 construct: expressed in transfected cells
Description: Agonistic activity on human GHSR in human GHSR/CHO cells (FLIPR calcium). The data set is classed as cell-based. The following applies: human GHSR/CHO stable transformant cells, Fluo-4 FLIPR. The protocol:
This method is used for determining the agonistic activity effect of the compound in the present invention on human GHSR protein expressed in human GHSR/CHO stable transformant cells.
Preparation of buffer solution: HBSS (1X): HEPES (1M)=49:1, 0.5% BSA added.
Human GHSR/CHO containing stable transformant cells were inoculated in a 384-well plate, a cell plate was taken out after overnight, the culture medium was removed, and 20 μL of buffer solution was slowly added in each well, then 20 μL of 2X Fluo-4 Direct™ No-wash Loading Buffer was added in each well. The cell plate was incubated in an incubator containing 5% of CO2 at 37° C. for 50 min, and the cell plate was taken out and placed at room temperature for 10 min. 30 μL of buffer solution was added to each well in the compound plate; an additional buffer solution plate was prepared, and 30 μL of buffer solution was added to each well. […] 10 μL of buffer solution was transferred to the cell plate, the fluorescence signal values were read. 10 μL of compound was transferred to the cell plate, the fluorescence signal values were read. The maximum-minimum values from the 91st signal point to the 230th signal point were calculated through the FLIPR program. The EC50 value of the compound could be calculated by the software using the fluorescence value corresponding to the different concentrations.

Data set [2] can be described thus: in vitro. The following applies: human, Caco-2, pH 7.4. The protocol:
A transport buffer solution in the study was HBSS containing 10.0 mM of HEPSS, and had pH of 7.40±0.05. The compound to be tested was subjected to bidirectional test at 2.00 μM, and the final concentration of DMSO was required to be less than 1%. In a CO2 incubator at 37±1° C., the cell plate was stood and incubated for 2 h under CO2 at 5% […] and saturated humidity. After mixing all samples with acetonitrile containing internal standard, the mixture was centrifuged at 3200×g for 10 min. The compound was tested, 100 μL of supernatant was diluted with 100 μL of ultrapure water for LC-MS/MS analysis. The concentration of the test compound and a control compound (Digoxin as a model verification compound and ibutamoren as a positive control) in a donor solution and a receiver solution was quantified by an LC-MS/MS method using the peak area ratio of the analyte/internal standard. After transport determination, a lucifer yellow exclusion determination was carried out to determine the integrity of the Caco-2 cell monolayer.

T1 sequence (Q92847 whole entry): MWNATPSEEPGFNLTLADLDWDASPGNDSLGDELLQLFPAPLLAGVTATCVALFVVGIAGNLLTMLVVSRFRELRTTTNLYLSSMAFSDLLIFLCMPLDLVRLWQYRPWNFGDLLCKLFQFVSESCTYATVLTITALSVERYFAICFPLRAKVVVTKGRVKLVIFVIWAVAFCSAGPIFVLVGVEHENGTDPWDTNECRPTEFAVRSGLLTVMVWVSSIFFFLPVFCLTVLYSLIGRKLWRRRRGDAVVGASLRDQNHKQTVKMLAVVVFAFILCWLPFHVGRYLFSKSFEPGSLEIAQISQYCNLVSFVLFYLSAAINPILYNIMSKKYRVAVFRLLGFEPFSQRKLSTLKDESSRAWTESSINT

Consider `CC(OC(=O)NC(C)(C)C(=O)N[C@H](COCc1ccccc1)C(=O)N1CCC2(CC1)CN(S(C)(=O)=O)c1ccccc12)OC(=O)C(C)C` (stereo partly drawn) [Compound 1e, (4R)-7,7-dimethyl-4-(1-(methylsulfonyl)spiro[indoline-3,4′-piperidine]-1′-carbonyl)-6,9-dioxo-1-phenyl-2,10-dioxa-5,8-diazadodecane-11-ylisobutyrate], for which the EC50 (usually the concentration needed to bring the measured effect to its halfway point) in data set [1] was found to be 14.6 nM. Also, in data set [2], the Papp A→B (commonly how fast a substance crosses the layer from the apical side) at 2 h, 2 μM stood at 0.0518 ×10⁻⁶ cm/s; the Papp B→A (as a rule, how fast a substance crosses the layer from the basolateral side) at 2 h, 2 μM stood at 8.8 ×10⁻⁶ cm/s; the efflux ratio (commonly a quotient of directional permeabilities that is used to spot active efflux) at 2 h, 2 μM worked out at 170.
